Consider six molecules from ChEMBL document CHEMBL1159078, “Bicyclic peptides as potent inhibitors of histone deacetylases: optimization of alkyl loop length” (Bioorg Med Chem Lett, 2010).

Where a SMILES comes first, the peptide text is derived from it. [ ]: non-standard residue; d: D form. The star is where a group is joined. Asu = N[C@@H](CCCCCC(=O)O)C(=O)O; dAhp(2) = CCCCC[C@@H](N)C(=O)O; Ahp(2) = CCCCC[C@H](N)C(=O)O; NHOH = ON*

Assay [1] deals with T1, Histone deacetylase 4 (Homo sapiens, UniProt P56524). Briefly: Inhibition of HDAC4.
T1 sequence (P56524 whole entry): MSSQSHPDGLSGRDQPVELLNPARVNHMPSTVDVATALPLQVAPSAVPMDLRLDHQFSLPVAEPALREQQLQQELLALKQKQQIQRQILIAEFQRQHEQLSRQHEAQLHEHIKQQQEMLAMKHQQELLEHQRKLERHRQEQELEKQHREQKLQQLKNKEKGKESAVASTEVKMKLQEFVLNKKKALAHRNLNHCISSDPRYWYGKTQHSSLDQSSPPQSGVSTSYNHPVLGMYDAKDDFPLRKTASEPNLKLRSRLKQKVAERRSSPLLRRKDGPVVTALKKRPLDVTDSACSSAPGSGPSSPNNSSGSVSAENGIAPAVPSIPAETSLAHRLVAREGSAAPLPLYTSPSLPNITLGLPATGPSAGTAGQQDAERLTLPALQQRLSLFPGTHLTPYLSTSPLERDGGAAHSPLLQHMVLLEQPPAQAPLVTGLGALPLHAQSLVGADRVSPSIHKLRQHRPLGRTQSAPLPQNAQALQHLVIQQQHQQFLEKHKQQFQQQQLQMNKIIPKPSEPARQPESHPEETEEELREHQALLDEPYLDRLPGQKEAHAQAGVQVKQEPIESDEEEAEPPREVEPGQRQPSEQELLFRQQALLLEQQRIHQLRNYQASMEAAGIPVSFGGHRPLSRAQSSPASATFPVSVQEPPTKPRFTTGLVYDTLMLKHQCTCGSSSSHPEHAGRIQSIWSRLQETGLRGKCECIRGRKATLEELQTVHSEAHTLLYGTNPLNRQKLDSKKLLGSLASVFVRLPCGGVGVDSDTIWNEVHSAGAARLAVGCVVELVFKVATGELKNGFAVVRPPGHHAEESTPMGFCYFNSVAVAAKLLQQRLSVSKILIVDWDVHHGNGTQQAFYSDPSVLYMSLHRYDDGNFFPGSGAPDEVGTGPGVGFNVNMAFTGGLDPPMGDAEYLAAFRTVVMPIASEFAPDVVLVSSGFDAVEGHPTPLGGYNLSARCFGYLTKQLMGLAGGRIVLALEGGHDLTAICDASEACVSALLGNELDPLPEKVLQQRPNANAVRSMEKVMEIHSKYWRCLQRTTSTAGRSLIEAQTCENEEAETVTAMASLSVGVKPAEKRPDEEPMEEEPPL
Assay [2] concerns the target Histone deacetylase 1 (Homo sapiens, UniProt Q13547). Description: Inhibition of HDAC1.
Assay [3] concerns the target T2, Protein deacetylase HDAC6 (Homo sapiens, UniProt Q9UBN7).
T2 sequence (Q9UBN7 whole entry): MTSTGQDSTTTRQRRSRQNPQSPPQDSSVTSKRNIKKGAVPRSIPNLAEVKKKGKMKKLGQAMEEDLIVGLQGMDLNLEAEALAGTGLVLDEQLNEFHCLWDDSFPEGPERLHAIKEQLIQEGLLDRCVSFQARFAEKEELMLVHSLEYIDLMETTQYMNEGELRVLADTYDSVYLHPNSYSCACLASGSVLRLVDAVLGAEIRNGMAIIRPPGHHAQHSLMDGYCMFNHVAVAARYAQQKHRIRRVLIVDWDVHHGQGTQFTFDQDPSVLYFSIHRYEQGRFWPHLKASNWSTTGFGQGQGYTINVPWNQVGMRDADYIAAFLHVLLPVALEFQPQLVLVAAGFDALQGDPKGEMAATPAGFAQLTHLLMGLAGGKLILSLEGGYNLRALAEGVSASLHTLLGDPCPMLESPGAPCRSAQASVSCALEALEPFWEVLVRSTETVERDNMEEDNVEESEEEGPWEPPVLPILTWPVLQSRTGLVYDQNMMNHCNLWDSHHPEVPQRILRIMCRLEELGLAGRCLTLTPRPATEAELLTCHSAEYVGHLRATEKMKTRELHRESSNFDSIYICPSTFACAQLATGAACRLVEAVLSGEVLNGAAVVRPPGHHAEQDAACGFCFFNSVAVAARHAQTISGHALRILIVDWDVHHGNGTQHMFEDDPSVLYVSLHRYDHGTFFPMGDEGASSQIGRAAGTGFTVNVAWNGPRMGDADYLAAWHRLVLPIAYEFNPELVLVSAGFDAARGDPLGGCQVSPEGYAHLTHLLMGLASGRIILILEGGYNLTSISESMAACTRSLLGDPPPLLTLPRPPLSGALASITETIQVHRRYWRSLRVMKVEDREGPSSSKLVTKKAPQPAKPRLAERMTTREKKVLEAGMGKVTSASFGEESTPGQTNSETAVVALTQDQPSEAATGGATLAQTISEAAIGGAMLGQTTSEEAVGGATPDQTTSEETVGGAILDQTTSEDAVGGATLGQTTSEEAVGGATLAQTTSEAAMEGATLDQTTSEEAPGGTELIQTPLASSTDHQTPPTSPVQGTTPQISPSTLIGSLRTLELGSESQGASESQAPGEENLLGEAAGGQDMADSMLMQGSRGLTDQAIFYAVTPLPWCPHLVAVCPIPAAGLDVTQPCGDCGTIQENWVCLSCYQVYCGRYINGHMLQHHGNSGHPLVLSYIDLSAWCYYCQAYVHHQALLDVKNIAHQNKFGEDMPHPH
Briefly: Inhibition of HDAC6.

Assay [4] in a line: Selectivity ratio, IC50 for HDAC6 to IC50 for HDAC4.
For assay [5], the target named is T1, Histone deacetylase 4.

Histone deacetylase 1, sequence (Q13547 whole entry): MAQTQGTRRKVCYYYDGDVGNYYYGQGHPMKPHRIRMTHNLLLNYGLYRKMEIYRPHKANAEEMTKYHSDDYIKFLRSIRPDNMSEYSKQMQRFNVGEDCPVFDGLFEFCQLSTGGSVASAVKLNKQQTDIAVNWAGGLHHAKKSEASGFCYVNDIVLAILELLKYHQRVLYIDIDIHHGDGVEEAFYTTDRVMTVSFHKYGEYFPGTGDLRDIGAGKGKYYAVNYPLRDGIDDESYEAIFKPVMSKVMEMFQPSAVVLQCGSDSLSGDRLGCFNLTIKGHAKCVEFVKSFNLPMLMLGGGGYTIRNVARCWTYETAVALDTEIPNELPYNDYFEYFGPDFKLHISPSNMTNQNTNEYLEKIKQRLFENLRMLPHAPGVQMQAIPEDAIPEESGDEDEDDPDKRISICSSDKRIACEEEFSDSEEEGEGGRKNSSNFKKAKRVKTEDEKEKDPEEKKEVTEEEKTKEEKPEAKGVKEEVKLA

Consider `O=C(CCCCC[C@@H]1NC(=O)[C@H]2CCCN2C(=O)[C@@H]2CCCCCCCCCC[C@@H](NC1=O)C(=O)N2)NO`, for which the IC50 (commonly the point on the concentration scale where inhibition reaches its midpoint) in assay [1] came out at 5.5 nM; in assay [2], 9.1 nM; in assay [3], 410 nM. Besides, the Ratio IC50 in assay [4] stood at 75. In assay [5], this molecule yielded an EC1000 of 7.2 nM.
Regarding `CC(/C=C/C(=O)NO)=C\[C@@H](C)C(=O)c1ccc(N(C)C)cc1`, the EC1000 in assay [5] came to 20 nM.
Consider `CCCCC[C@@H]1NC(=O)[C@@H](CCCCC)NC(=O)[C@H](CCCCCC(=O)NO)NC(=O)[C@H]2CCCN2C1=O` (cyclo([Ahp(2)][dP][Asu](NHOH)[dAhp(2)])), for which the values for the IC50 in assay [1], in assay [2] and in assay [3] were 12 nM, 25 nM and 340 nM, respectively. Also, in assay [5], the EC1000 turned out to be 13 nM.
Regarding `O=C(CCCCC[C@@H]1NC(=O)[C@H]2CCCN2C(=O)[C@@H]2CCCCCCCCC[C@@H](NC1=O)C(=O)N2)NO`, the IC50 in assay [1] stood at 5.4 nM; in assay [2] it was 9.1 nM; in assay [3], 330 nM. The molecule also came in with an EC1000 in assay [5] of 92 nM.
For `O=C(CCCCC[C@@H]1NC(=O)[C@H]2CCCN2C(=O)[C@@H]2CCCCCCCCCCCC[C@@H](NC1=O)C(=O)N2)NO`, the half-maximal inhibitory concentration (IC50) in assay [1] amounted to 5 nM; in assay [2] it was 13 nM; in assay [3], 240 nM. In addition, the EC1000 in assay [5] was determined as 2 nM.
For `O=C(CCCCC[C@@H]1NC(=O)[C@H]2CCCN2C(=O)[C@@H]2CCCCCCCCCCC[C@@H](NC1=O)C(=O)N2)NO` the same measures were 4.5 nM, 11 nM, 280 nM and 2.6 nM.
